Source: ChEMBL document CHEMBL5370643, “Discovery of MK-1468: A Potent, Kinome-Selective, Brain-Penetrant Amidoisoquinoline LRRK2 Inhibitor for the Potential Treatment of Parkinson's Disease” (J Med Chem, 2023)

How the values were obtained:
[1] = Unbound brain-to-plasma concentration ratio in iv dosed Wistar-Han rat administered as cassette dose by LC-MS/MS analysis; format: ADME, organism-based; settings: read-out: K(p,uu,brain)
[2] = MRT in Beagle dog at […], iv measured after 24 hrs by LC-MS/MS analysis; format: ADME, organism-based, Canis lupus familiaris; settings: in vivo, dose 0.25 mg/kg
[3] = Intrinsic clearance in Beagle dog at […], iv measured after 24 hrs by LC-MS/MS analysis; format: ADME, organism-based, Canis lupus familiaris; settings: in vivo, dose 0.25 mg/kg
[4] = Oral bioavailability in rhesus monkey at 2 mg/kg measured after 24 hrs by LC-MS/MS analysis; format: ADME, organism-based, Macaca mulatta; settings: in vivo
[5] = Cardiotoxicity in guinea pig assessed as increase in QTc interval at 20 to 50 mg/kg, iv administered continuously for 20 min by ECG analysis; format: toxicity, organism-based, Cavia porcellus; settings: in vivo, dose 20-50 mg/kg
[6] = Oral bioavailability in Wistar-Han rat at 5 mg/kg measured after 24 hrs by LC-MS/MS analysis; format: ADME, organism-based; settings: in vivo
mouse BCRP = experiment: Efflux ratio of apparent permeability across basolateral to apical over apical to basolateral side in MDCK-II cells transfected with mouse BCRP incubated for 3 hrs by LC-MS/MS analysis; settings: dog
[7] = Lipophilicity, logD of compound at pH 7 by HT-HPLC/DAD analysis; format: physicochemical; settings: buffer
rat Mdr1a P-gp = experiment: Apparent permeability across apical to basolateral side in LLC-PK1 cells transfected with rat Mdr1a P-gp incubated for 3 hrs by LC-MS/MS analysis; settings: pig
[8] = AUC in Wistar-Han rat at 300 mg/kg by LC-MS/MS analysis; format: ADME, organism-based; design: dose 300 mg/kg; settings: in vivo
[9] = molecular target: KCNQ1/KCNE1 (IKs, Kv7.1/MinK) (Homo sapiens, UniProt P15382+P51787); experiment: Inhibition of human KCNQ1/KCNE1 expressed in HEK293 cells at 30 uM by QPatch voltage clamp assay relative to control; format: cell-based; settings: HEK293 cells expressing human KCNQ1/KCNE1
Chain of KCNQ1/KCNE1 (IKs, Kv7.1/MinK) (P51787 whole entry): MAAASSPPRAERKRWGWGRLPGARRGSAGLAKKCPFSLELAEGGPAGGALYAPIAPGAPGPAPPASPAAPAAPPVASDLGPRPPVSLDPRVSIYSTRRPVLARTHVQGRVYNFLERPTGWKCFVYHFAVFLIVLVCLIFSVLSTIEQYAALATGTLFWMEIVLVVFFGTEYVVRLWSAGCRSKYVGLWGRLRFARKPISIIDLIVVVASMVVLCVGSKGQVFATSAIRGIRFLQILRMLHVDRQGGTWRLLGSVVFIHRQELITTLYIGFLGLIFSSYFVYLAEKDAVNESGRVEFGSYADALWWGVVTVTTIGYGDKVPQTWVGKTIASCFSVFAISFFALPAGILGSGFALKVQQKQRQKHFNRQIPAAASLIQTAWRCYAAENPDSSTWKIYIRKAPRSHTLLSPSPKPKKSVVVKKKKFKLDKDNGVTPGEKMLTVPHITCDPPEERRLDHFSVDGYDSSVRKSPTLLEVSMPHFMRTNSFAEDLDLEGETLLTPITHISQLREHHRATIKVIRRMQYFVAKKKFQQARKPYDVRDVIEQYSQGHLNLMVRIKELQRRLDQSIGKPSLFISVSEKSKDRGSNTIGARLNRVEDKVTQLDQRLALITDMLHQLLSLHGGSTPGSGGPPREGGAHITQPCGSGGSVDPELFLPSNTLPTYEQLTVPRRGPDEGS

[10] = Oral bioavailability in Beagle dog at 1 mg/kg measured after 24 hrs by LC-MS/MS analysis; format: ADME, organism-based, Canis lupus familiaris; settings: in vivo
[11] = Cardiotoxicity in guinea pig assessed as increase in PR interval at 20 to 50 mg/kg, iv administered continuously for 20 min by ECG analysis; format: toxicity, organism-based, Cavia porcellus; settings: in vivo, dose 20-50 mg/kg
[12] = MRT in rhesus monkey at 1 mg/kg, iv measured after 24 hrs by LC-MS/MS analysis; format: ADME, organism-based, Macaca mulatta; settings: in vivo
rat Mdrl1 P-gp = experiment: Efflux ratio of apparent permeability across basolateral to apical over apical to basolateral side in MDCK cells transfected with rat Mdrl1 P-gp incubated for 3 hrs by LC-MS/MS analysis; settings: dog, MDCK-MDR1
[13] = Total clearance in Wistar-Han rat at 2 mg/kg, iv measured after 24 hrs by LC-MS/MS analysis; format: ADME, organism-based; settings: in vivo
[14] = molecular target: Voltage-dependent L-type calcium channel subunit alpha-1C (Homo sapiens, UniProt Q13936); experiment: Inhibition of human Cav1.2
[15] = Intrinsic clearance in Wistar-Han rat at 2 mg/kg, iv measured after 24 hrs by LC-MS/MS analysis; format: ADME, organism-based; settings: in vivo
[16] = Total clearance in rhesus monkey at 1 mg/kg, iv measured after 24 hrs by LC-MS/MS analysis; format: ADME, organism-based, Macaca mulatta; settings: in vivo
[17] = Intrinsic clearance in rhesus monkey at 1 mg/kg, iv measured after 24 hrs by LC-MS/MS analysis; format: ADME, organism-based, Macaca mulatta; settings: in vivo
[18] = molecular target: Sodium channel protein type 5 subunit alpha (Homo sapiens, UniProt Q14524); experiment: (§1) Inhibition of human Nav1.5 expressed in HEK293 cells by QPatch voltage clamp assay; format: cell-based
Nav1.5 = Nav1.5 (Homo sapiens, UniProt Q14524); experiment: as §1; format: cell-based; settings: human, HEK293 cells expressing human Nav1.5
[19] = molecular target: Leucine-rich repeat serine/threonine-protein kinase 2 (Homo sapiens) (UniProt Q5S007); experiment: Inhibition of LRRK2 in human PBMC using LRRKtide peptide as substrate assessed as Ser935 dephosphorylation preincubated with compound for 15 mins followed by substrate addition and measured after 90 mins in presence of ATP by TR-FRET assay; format: cell-based; settings: time 105.0 min
Chain of Leucine-rich repeat serine/threonine-protein kinase 2 (Homo sapiens) (Q5S007 whole entry): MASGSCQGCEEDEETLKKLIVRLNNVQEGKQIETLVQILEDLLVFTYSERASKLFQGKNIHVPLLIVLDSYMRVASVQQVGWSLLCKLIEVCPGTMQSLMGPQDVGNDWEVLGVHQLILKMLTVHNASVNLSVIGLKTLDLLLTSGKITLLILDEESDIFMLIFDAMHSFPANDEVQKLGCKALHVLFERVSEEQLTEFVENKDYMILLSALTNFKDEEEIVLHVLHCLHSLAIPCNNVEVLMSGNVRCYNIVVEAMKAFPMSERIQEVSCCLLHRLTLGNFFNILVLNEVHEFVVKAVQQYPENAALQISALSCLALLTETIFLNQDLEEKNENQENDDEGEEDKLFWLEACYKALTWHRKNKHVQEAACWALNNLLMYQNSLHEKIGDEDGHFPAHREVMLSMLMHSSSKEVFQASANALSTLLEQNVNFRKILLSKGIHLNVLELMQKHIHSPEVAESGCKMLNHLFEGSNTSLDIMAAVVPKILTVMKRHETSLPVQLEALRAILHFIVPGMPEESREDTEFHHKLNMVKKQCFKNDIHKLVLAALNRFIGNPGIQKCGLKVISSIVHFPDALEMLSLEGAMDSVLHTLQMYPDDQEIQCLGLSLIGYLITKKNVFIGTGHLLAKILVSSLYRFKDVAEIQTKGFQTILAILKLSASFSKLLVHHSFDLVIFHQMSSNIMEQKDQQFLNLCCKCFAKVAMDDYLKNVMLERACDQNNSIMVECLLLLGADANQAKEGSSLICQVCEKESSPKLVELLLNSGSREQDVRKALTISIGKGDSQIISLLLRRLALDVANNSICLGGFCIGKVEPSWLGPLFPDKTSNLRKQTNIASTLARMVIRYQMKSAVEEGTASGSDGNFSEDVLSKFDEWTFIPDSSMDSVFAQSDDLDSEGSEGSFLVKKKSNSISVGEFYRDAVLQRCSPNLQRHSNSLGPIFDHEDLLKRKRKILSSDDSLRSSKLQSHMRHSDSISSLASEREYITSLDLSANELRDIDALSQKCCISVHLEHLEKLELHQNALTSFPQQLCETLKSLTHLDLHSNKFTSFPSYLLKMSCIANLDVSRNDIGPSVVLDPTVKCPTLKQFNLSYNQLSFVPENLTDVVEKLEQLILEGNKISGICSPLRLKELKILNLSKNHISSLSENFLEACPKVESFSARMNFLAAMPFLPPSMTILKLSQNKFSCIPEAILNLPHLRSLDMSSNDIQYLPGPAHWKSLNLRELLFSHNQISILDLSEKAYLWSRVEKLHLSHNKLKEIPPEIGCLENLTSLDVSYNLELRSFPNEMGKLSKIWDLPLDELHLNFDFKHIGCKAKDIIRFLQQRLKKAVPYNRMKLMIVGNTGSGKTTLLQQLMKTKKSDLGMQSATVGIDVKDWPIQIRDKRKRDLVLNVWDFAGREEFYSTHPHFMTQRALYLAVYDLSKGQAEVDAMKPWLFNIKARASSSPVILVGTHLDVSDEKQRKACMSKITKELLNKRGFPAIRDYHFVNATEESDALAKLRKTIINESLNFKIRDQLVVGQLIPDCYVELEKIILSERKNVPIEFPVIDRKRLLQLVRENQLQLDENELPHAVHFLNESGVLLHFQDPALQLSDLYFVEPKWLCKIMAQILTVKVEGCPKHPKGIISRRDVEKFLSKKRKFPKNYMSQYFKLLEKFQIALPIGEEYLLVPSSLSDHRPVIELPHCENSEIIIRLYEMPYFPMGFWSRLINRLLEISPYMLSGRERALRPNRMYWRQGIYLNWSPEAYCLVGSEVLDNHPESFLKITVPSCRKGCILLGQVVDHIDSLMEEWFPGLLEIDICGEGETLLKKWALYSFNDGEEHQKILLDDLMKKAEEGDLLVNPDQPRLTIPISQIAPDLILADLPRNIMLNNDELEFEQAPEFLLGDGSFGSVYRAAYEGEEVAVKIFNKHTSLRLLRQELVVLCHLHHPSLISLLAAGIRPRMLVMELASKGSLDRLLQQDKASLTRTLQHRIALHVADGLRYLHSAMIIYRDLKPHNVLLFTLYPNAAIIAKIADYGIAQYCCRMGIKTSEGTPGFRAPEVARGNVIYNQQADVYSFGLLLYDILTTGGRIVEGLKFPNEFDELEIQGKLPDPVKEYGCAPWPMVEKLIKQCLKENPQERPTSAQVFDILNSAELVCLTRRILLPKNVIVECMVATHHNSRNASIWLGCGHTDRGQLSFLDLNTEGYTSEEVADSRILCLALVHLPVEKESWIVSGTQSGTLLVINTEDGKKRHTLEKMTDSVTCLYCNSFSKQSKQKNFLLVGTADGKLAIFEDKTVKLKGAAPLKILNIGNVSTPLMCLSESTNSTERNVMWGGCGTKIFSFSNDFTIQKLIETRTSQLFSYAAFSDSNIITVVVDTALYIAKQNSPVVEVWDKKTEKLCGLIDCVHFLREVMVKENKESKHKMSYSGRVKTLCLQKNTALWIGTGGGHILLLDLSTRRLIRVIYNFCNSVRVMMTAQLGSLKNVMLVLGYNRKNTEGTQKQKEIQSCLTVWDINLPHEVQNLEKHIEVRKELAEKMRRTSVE

[20] = Total clearance in Beagle dog at […], iv measured after 24 hrs by LC-MS/MS analysis; format: ADME, organism-based, Canis lupus familiaris; settings: in vivo, dose 0.25 mg/kg
[21] = molecular target: Voltage-gated inwardly rectifying potassium channel KCNH2 (Homo sapiens, UniProt Q12809); experiment: (§2) Inhibition of hERG expressed in CHO cells by QPatch voltage clamp assay
hERG = hERG (Homo sapiens, UniProt Q12809); experiment: as §2; settings: human, CHO cells expressing hERG
Chain of hERG (Q12809 whole entry): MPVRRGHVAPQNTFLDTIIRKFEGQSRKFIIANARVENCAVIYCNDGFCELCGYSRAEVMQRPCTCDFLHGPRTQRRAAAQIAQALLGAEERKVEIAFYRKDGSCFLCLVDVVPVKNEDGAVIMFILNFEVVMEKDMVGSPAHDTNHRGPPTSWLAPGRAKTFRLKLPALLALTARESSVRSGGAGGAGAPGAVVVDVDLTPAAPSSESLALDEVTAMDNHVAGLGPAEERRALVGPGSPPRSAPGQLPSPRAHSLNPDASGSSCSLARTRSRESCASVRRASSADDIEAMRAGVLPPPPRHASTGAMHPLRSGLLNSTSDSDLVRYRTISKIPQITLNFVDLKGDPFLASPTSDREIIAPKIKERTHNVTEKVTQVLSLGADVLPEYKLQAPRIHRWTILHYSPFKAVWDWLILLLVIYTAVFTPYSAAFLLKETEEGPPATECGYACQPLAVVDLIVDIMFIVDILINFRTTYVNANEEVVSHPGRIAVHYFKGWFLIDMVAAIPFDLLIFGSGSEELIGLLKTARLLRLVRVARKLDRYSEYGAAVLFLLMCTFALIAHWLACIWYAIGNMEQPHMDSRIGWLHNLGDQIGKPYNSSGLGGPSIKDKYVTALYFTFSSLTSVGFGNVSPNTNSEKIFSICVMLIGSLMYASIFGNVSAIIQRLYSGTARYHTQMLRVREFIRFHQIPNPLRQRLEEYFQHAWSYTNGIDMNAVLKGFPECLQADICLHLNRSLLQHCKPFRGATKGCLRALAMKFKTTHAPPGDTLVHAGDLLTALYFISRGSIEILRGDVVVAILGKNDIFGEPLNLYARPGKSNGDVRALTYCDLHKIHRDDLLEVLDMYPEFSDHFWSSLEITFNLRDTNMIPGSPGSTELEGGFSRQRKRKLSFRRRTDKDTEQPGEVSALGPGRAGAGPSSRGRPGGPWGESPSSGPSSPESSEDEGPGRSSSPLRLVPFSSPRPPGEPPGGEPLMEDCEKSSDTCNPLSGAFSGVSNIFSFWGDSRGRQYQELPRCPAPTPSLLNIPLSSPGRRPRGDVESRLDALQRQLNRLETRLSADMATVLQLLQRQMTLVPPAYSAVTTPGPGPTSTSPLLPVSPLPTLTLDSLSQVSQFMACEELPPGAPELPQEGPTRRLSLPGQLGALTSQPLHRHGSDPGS

[22] = MRT in Wistar-Han rat at 2 mg/kg, iv measured after 24 hrs by LC-MS/MS analysis; format: ADME, organism-based; settings: in vivo
[23] = molecular target: Leucine-rich repeat serine/threonine-protein kinase 2 (Homo sapiens, UniProt Q5S007, G2019S); experiment: Inhibition of recombinant N-terminal GST-fused LRRK2 […] mutant (970 to 2527 residues) (unknown origin) using LRRKtide peptide as substrate assessed as inhibition of substrate phosphorylation preincubated with compound for 15 mins followed by substrate addition and measured after 90 mins in presence of ATP by TR-FRET assay
Chain of Leucine-rich repeat serine/threonine-protein kinase 2 (Q5S007 whole entry G2019S, the tested form may be a part): as the sequence (Q5S007 whole entry) above, with G2019S counted along it

[24] = AUC in Wistar-Han rat at 50 mg/kg by LC-MS/MS analysis; format: ADME, organism-based; design: dose 50 mg/kg; settings: in vivo
[25] = Toxicity in Wistar-Han rat assessed as tolerance at 50 to 300 mg/kg, qd; format: organism-based; settings: in vivo, dose 50-300 mg/kg
[26] = molecular target: MAP/microtubule affinity-regulating kinase 3 (Homo sapiens, UniProt P27448); experiment: Inhibition of recombinant human full length MARK3 expressed in insect cells using CHKtide as substrate preincubated with compound for 15 mins followed by substrate addition and measured after 15 mins in the presence of ATP by scintillation based radiometric LeadHunter assay
[27] = Cardiotoxicity in guinea pig assessed as increase in QRS interval at 20 to 50 mg/kg, iv administered continuously for 20 min by ECG analysis; format: toxicity, organism-based, Cavia porcellus; settings: in vivo, dose 20-50 mg/kg
[28] = Drug metabolism in dog assessed as amide hydrolysis mediated metabolite formation by MetID analysis; format: ADME, Canis lupus familiaris

In the case of `C[C@@]1(N2CCC(c3cc4cc(NC(=O)C5CC56CC6)ncc4cc3Cl)CC2)COC[C@@H]1O` (stereo partly drawn), the Kp uu [1] is reported as 0.6, the MRT at 24 h [2] is reported as 33 h and the CL [3] is reported as 341 mL/min/kg. For the same compound, the bioavailability [4] was 21%, the Activity [5] was “Toxic” and the bioavailability [6] was 100%. For the same compound, the efflux ratio at 3 h (mouse BCRP) was 1.1, the logD [7] was 3 and the Papp A→B at 3 h (rat Mdr1a P-gp) was 30 ×10⁻⁶ cm/s. It also gave an AUC [8] of 458 µM·h, an inhibition at 30 µM [9] of 15% and a bioavailability [10] of 81%. For the same compound, the Activity [11] was “Toxic”, the MRT [12] was 10 h and the efflux ratio at 3 h (rat Mdrl1 P-gp) was 1.5. For the same compound, the clearance [13] was 11 mL/min/kg, the “inhibition (INH)” value [14] was “Not Active” and the CL [15] was 271 mL/min/kg. The clearance [16] was 13 mL/min/kg, the CL [17] was 341 mL/min/kg and the IC50 [18] was 28000 nM. It also gave an IC20 (Nav1.5) of 10000 nM, a fIC50 [19] of 2.8 nM and a clearance at 24 h [20] of 9 mL/min/kg. For the same compound, the IC50 [21] was 3700 nM, the IC20 (hERG) was 1300 nM and the MRT [22] was 9 h. For the same compound, the IC50 [23] was 3 nM, the AUC [24] was 111 µM·h and the Activity [25] was “Non-Toxic”. For the same compound, the IC50 [26] was 29 nM, the Activity [27] was “Toxic” and the Drug metabolism [28] was “Metabolite_Notdetected”.
